Measured values taken from publication PMC10082216 (Nature Communications, 2023).
Where two headings read alike, the source gives them in different places.

Assay: TD-6450 phase I clinical study (SAD/MAD): pharmacokinetics
Type: in vivo, human
Conditions: male, human
Protocol: Primary and secondary outcomes were pre-defined as follows: Safety and tolerability as a primary outcome, pharmacokinetics as a secondary outcome. Safety and tolerability were evaluated using standard measures, including adverse event (AE) monitoring, clinical laboratory tests (hematology, serum chemistry, coagulation, and urinalysis), vital signs, physical examinations, and 12-lead electrocardiograms (ECGs). […]
This study was conducted in two parts, Part A (SAD) and Part B (MAD). For the Part A, the age of enrolled subjects ranged from 20 to 60 years, with a mean age range of 32.1 to 46.2 years. Most subjects were male (73 total subjects) and most were white (55 subjects) or black (22 subjects). For Part B of the study, ages ranged from 23 to 60 years with a similar mean age across treatment groups. Most subjects were male (25 total subjects) and all were either white (18 subjects) or black (12 subjects). For each part of the study, the mean body mass index (BMI) and creatinine clearance were similar across treatment groups. […] Part A: Healthy subjects were sequentially enrolled and randomly assigned to each dose cohort (up to 10 dose-ascending cohorts were planned, including a fed arm in the food effect cohort) to receive either a single dose of TD-6450 or placebo. For each dose cohort, 8 subjects were randomized in a 3:1 ratio (6 subjects received TD-6450 and 2 subjects received placebo). The starting dose of TD-6450 was 0.5 mg with a planned maximum dose of 1000 mg. Upon review of the 500-mg cohort PK data, the decision was made to not escalate to the 1000-mg cohort because of exposure saturation at ≥ 500 mg. The following doses were administered: 0.5 mg, 1.5 mg, 5 mg, 15 mg, 30 mg, 60 mg, 120 mg, 240 mg, and 500 mg. Part B: Healthy subjects were sequentially enrolled in 3 ascending dose cohorts (TD-6450 60 mg, 120 mg, and 240 mg) and randomly assigned to receive either TD-6450 or placebo as once daily doses for 14 days. For each dose cohort, 10 subjects were randomized in a 4:1 ratio (8 subjects received TD-6450 and 2 subjects received placebo). Blinded safety, tolerability, and available PK data after each dose cohort were reviewed by the Safety Data Review Committee (SDRC) before escalation to the next dosing cohort for both part A and B. Subjects of the clinical study were randomly assigned to each cohort. Randomizations codes were assigned to the subjects. All study subjects, study investigators, and the sponsor’s staff involved in the conduct of the study were blinded to treatment assignment. The only personnel who had access to the randomization code before database lock were: The pharmacist or pharmacy staff member who prepared drug or placebo capsules for administration to the subject according to the randomization code and the bioanalytical contract laboratory that analyzed the PK samples (plasma and urine).

SMILES: CNC(=O)N1C[C@@H](C)N(c2ccc(C(=O)Nc3ccc(-c4ccc(-c5c[nH]c([C@@H]6CCCN6C(=O)[C@@H](NC(=O)OC)C(C)C)n5)cc4)c(OC(F)(F)F)c3)cn2)C[C@@H]1C [TD-6450]
- TD-6450 concentration (in vivo, 120 h): 29.30 ng/mL
- concentration at 15 min (in vivo, TD-6450 concentration): 0 ng/mL
- concentration at 2 h (in vivo, TD-6450 concentration): 116 ng/mL
- concentration at 3 h (in vivo, TD-6450 concentration): 156 ng/mL
- concentration at 4 h (in vivo, TD-6450 concentration): 159 ng/mL
- concentration at 6 h (in vivo, TD-6450 concentration): 165 ng/mL
- concentration at 12 h (in vivo, TD-6450 concentration): 108 ng/mL
- concentration at 24 h (in vivo, TD-6450 concentration): 85.6 ng/mL
- concentration at 48 h (in vivo, TD-6450 concentration): 60 ng/mL
- concentration at 72 h (in vivo, TD-6450 concentration): 42.6 ng/mL
- concentration at 96 h (in vivo, TD-6450 concentration): 27.1 ng/mL
- concentration at 120 h (in vivo, TD-6450 concentration): 19.3 ng/mL
- concentration at 144 h (in vivo, TD-6450 concentration): 15.1 ng/mL
- concentration at 168 h (in vivo, TD-6450 concentration): 12.2 ng/mL
- concentration at 312 h (in vivo, TD-6450 concentration): 2.12 ng/mL
- concentration at 1 h (plasma, oral, 0.5 mg, Male subjects, SAD arm NCT02022306, Dose 0.50, 1 Hour, read-out: Concentration): 0 ng/mL
- concentration at 2 h (plasma, oral, 0.5 mg, Male subjects, SAD arm NCT02022306, Dose 0.50, 2 Hours, read-out: Concentration): 0 ng/mL
- concentration at 3 h (plasma, oral, 0.5 mg, Male subjects, SAD arm NCT02022306, Dose 0.50, 3 Hours, read-out: Concentration): 0 ng/mL
- concentration at 15 min (plasma, oral, 0.5 mg, Male subjects, SAD arm NCT02022306, Dose 0.50, 15 Minutes, read-out: Concentration): 0 ng/mL
- concentration at 24 h (plasma, oral, 0.5 mg, Male subjects, SAD arm NCT02022306, Dose 0.50, 24 Hours, read-out: Concentration): 0 ng/mL
- concentration at 30 min (plasma, oral, 0.5 mg, Male subjects, SAD arm NCT02022306, Dose 0.50, 30 Minutes, read-out: Concentration): 0 ng/mL
- concentration at 72 h (plasma, oral, 0.5 mg, Male subjects, SAD arm NCT02022306, Dose 0.50, 72 Hours, read-out: Concentration): 0 ng/mL
- concentration at 96 h (plasma, oral, 0.5 mg, Male subjects, SAD arm NCT02022306, Dose 0.50, 96 Hours, read-out: Concentration): 0 ng/mL
- concentration at 120 h (plasma, oral, 0.5 mg, Male subjects, SAD arm NCT02022306, Dose 0.50, 120 Hours, read-out: Concentration): 0 ng/mL
- concentration at 144 h (plasma, oral, 0.5 mg, Male subjects, SAD arm NCT02022306, Dose 0.50, 144 Hours, read-out: Concentration): 0 ng/mL
- concentration at 168 h (plasma, oral, 0.5 mg, Male subjects, SAD arm NCT02022306, Dose 0.50, 168 Hours, read-out: Concentration): 0 ng/mL
- concentration at 15 min (plasma, oral, 1.5 mg, Male subjects, SAD arm NCT02022306, Dose 1.50, 15 Minutes, read-out: Concentration): 0 ng/mL
- concentration at 30 min (plasma, oral, 1.5 mg, Male subjects, SAD arm NCT02022306, Dose 1.50, 30 Minutes, read-out: Concentration): 0 ng/mL
- concentration at 15 min (plasma, oral, 5 mg, Male subjects, SAD arm NCT02022306, Dose 5.00, 15 Minutes, read-out: Concentration): 0 ng/mL
- concentration at 15 min (plasma, oral, 15 mg, Male subjects, SAD arm NCT02022306, Dose 15.00, 15 Minutes, read-out: Concentration): 0 ng/mL
- concentration at 1 h (plasma, oral, 30 mg, Male subjects, SAD arm NCT02022306, Dose 30.00, 1 Hour, read-out: Concentration (ng/ml)): 0.68 ng/mL
- concentration at 2 h (plasma, oral, 30 mg, Male subjects, SAD arm NCT02022306, Dose 30.00, 2 Hours, read-out: Concentration): 9.36 ng/mL
- concentration at 3 h (plasma, oral, 30 mg, Male subjects, SAD arm NCT02022306, Dose 30.00, 3 Hours, read-out: Concentration): 15.6 ng/mL
- concentration at 3 h (plasma, oral, 30 mg, Male subjects, SAD arm NCT02022306, Dose 30.00, 3 Hours, read-out: Concentration (ng/ml)): 20.9 ng/mL
- concentration at 4 h (plasma, oral, 30 mg, Male subjects, SAD arm NCT02022306, Dose 30.00, 4 Hours, read-out: Concentration): 18.8 ng/mL
- concentration at 4 h (plasma, oral, 30 mg, Male subjects, SAD arm NCT02022306, Dose 30.00, 4 Hours, read-out: Concentration (ng/ml)): 17.9 ng/mL
- concentration at 6 h (plasma, oral, 30 mg, Male subjects, SAD arm NCT02022306, Dose 30.00, 6 Hours, read-out: Concentration): 22.6 ng/mL
- concentration at 8 h (plasma, oral, 30 mg, Male subjects, SAD arm NCT02022306, Dose 30.00, 8 Hours, read-out: Concentration): 26.3 ng/mL
- concentration at 12 h (plasma, oral, 30 mg, Male subjects, SAD arm NCT02022306, Dose 30.00, 12 Hours, read-out: Concentration): 18.7 ng/mL
- concentration at 15 min (plasma, oral, 30 mg, Male subjects, SAD arm NCT02022306, Dose 30.00, 15 Minutes, read-out: Concentration): 0 ng/mL
- concentration at 15 min (plasma, oral, 30 mg, Male subjects, SAD arm NCT02022306, Dose 30.00, 15 Minutes, read-out: Concentration (ng/ml)): 0 ng/mL
- concentration at 24 h (plasma, oral, 30 mg, Male subjects, SAD arm NCT02022306, Dose 30.00, 24 Hours, read-out: Concentration): 14.3 ng/mL
- concentration at 30 min (plasma, oral, 30 mg, Male subjects, SAD arm NCT02022306, Dose 30.00, 30 Minutes, read-out: Concentration (ng/ml)): 0 ng/mL
- concentration at 48 h (plasma, oral, 30 mg, Male subjects, SAD arm NCT02022306, Dose 30.00, 48 Hours, read-out: Concentration): 9.12 ng/mL
- concentration at 72 h (plasma, oral, 30 mg, Male subjects, SAD arm NCT02022306, Dose 30.00, 72 Hours, read-out: Concentration): 6.82 ng/mL
- concentration at 72 h (plasma, oral, 30 mg, Male subjects, SAD arm NCT02022306, Dose 30.00, 72 Hours, read-out: Concentration (ng/ml)): 5.73 ng/mL
- concentration at 96 h (plasma, oral, 30 mg, Male subjects, SAD arm NCT02022306, Dose 30.00, 96 Hours, read-out: Concentration): 5.25 ng/mL
- concentration at 96 h (plasma, oral, 30 mg, Male subjects, SAD arm NCT02022306, Dose 30.00, 96 Hours, read-out: Concentration (ng/ml)): 4.83 ng/mL
- concentration at 120 h (plasma, oral, 30 mg, Male subjects, SAD arm NCT02022306, Dose 30.00, 120 Hours, read-out: Concentration): 4.26 ng/mL
- concentration at 120 h (plasma, oral, 30 mg, Male subjects, SAD arm NCT02022306, Dose 30.00, 120 Hours, read-out: Concentration (ng/ml)): 3.52 ng/mL
- concentration at 144 h (plasma, oral, 30 mg, Male subjects, SAD arm NCT02022306, Dose 30.00, 144 Hours, read-out: Concentration): 3.26 ng/mL
- concentration at 144 h (plasma, oral, 30 mg, Male subjects, SAD arm NCT02022306, Dose 30.00, 144 Hours, read-out: Concentration (ng/ml)): 3.18 ng/mL
- concentration at 168 h (plasma, oral, 30 mg, Male subjects, SAD arm NCT02022306, Dose 30.00, 168 Hours, read-out: Concentration): 2.33 ng/mL
- concentration at 168 h (plasma, oral, 30 mg, Male subjects, SAD arm NCT02022306, Dose 30.00, 168 Hours, read-out: Concentration (ng/ml)): 2.29 ng/mL
- concentration at 8 h (plasma, oral, 60 mg, Male subjects, SAD arm NCT02022306, Dose 60.00, 8 Hours, read-out: Concentration (ng/ml)): 110 ng/mL
- concentration at 15 min (plasma, oral, 60 mg, Male subjects, SAD arm NCT02022306, Dose 60.00, 15 Minutes, read-out: Concentration (ng/ml)): 0 ng/mL
- concentration at 15 min (plasma, oral, 120 mg, Male subjects, SAD arm NCT02022306, Dose 120.00, 15 Minutes, read-out: Concentration (ng/ml)): 0 ng/mL
- concentration at 15 min (plasma, oral, 240 mg, Male subjects, SAD arm NCT02022306, Dose 240.00, 15 Minutes, read-out: Concentration (ng/ml)): 0 ng/mL
- concentration at 15 min (plasma, oral, 500 mg, Male subjects, SAD arm NCT02022306, Dose 500.00, 15 Minutes, read-out: Concentration (ng/ml)): 0 ng/mL
- concentration at 30 min (plasma, oral, 500 mg, Male subjects, SAD arm NCT02022306, Dose 500.00, 30 Minutes, read-out: Concentration (ng/ml)): 2.85 ng/mL
